Assay [1] deals with T1, human B1R receptor (CHO K1 cells stably transfected with the human B1R gene) (Homo sapiens, UniProt P46663).
T1 construct: expressed in transfected cells; host or cells: CHO K1 cells (Chinese hamster ovary), stably transfected
T1 sequence (P46663 1-353): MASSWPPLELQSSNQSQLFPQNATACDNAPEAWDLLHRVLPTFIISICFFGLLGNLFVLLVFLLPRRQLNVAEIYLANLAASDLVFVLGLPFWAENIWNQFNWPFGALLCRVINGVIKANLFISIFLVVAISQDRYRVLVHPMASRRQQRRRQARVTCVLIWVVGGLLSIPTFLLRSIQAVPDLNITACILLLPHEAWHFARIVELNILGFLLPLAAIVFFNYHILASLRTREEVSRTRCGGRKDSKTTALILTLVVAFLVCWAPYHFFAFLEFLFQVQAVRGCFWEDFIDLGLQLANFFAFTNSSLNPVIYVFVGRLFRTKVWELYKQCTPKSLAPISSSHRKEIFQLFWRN
The assay can be described thus: Functional study on the bradykinin receptor 1 (B1R), Ca2+ fluorescence (Fluo-4) FLIPR/Novostar assay, hB1R cells. Format: cell-based. The method in brief:
(§1)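 Ca2+ influx (Fluo-4, peak fluorescence, λex 488/λem 540 nm) was measured in CHO K1 lines expressing rat or human B1R. After a 10 μM test-compound pre-addition scoring % activation, cells received EC80 agonist: Des-Arg9-bradykinin for rat, Lys-Des-Arg9-bradykinin for human. Antagonism was expressed as % of maximum inhibition, with IC50 from varied concentrations.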

The target in assay [2] is T2, B1R receptor of the rat (CHO K1 cells stably transfected with the B1R gene of the rat) (Rattus norvegicus, UniProt P97583).
T2 construct: expressed in transfected cells; host or cells: CHO K1 cells (Chinese hamster ovary), stably transfected
T2 sequence (P97583 1-337): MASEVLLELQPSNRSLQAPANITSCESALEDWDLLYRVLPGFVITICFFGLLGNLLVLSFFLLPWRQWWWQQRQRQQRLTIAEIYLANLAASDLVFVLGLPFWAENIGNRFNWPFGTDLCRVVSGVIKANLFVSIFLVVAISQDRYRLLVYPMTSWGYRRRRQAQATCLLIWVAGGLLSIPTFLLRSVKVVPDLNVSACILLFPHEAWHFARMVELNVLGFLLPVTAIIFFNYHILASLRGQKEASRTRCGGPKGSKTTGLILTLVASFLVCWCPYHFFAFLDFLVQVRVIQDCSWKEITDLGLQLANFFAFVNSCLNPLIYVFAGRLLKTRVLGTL
The assay can be described thus: Functional study on the bradykinin receptor 1 (B1R), Ca2+ fluorescence (Fluo-4) FLIPR/Novostar assay, rB1R cells. As to conditions: CHO-K1, 10 μM. Format: cell-based. The method in brief:
as §1

Setting [3] is: CHO-K1, read-out: % inhibition (human B1R) at 10 μM.
Setting [4] is: read-out: % inhibition (rat B1R) at 10 μM.
The mark [5] stands for this setting: CHO-K1, read-out: % Inhibition (h-B1R) at 10 μM.
Where [6] appears, read: read-out: % Inhibition (r-B1R) at 10 μM.

Molecules are shown by their SMILES. Where two headings read alike, the source gives them in different places.

Turning to `CN1CCN([C@@H]2CCC[C@H](N(C)C(=O)c3ccc4c(c3)CC[C@H]4N3Cc4cccc(Cl)c4C3=O)C2)CC1` [Example H-111, (1R)-1-(4-Chloro-3-oxo-1,2-dihydro-isoindol-2-yl)-N-methyl-N-[(1S,3R)-3-(4-methyl-piperazin-1-yl)-cyclohexyl]-2,3-dihydro-1H-indene-5-carboxylic acid amide], the inhibition at 10 µM in assay [1] (setting [3]) was determined as 65%; in assay [2] (setting [4]), 10%.

In the case of `CN(C(=O)c1ccc2c(c1)C(NC(=O)c1cc(F)ccc1Cl)CCO2)C1CCN(c2ccncc2)CC1` (stereo not shown) [CC_H-63, 4-[(2-Chloro-5-fluoro-benzoyl)amino]-N-methyl-N-(1-pyridin-4-yl-piperidin-4-yl)-3,4-dihydro-2H-chromene-6-carboxylic acid amide], the inhibition at 10 µM in assay [1] (setting [5]) was found to be 99%; in assay [2] (setting [6]), 103%.

Turning to `CC(C)CS(=O)(=O)N[C@@H]1CCc2ccc(C(=O)N(C)C3CCN(c4ccncc4)CC3)cc21` [Example H-68, (3R)-N-Methyl-3-[(2-methyl-propylsulfonyl)amino]-N-(1-pyridin-4-yl-piperidin-4-yl)-2,3-dihydro-1H-indene-5-carboxylic acid amide], the inhibition at 10 µM in assay [1] (setting [3]) amounted to 100%; in assay [2] (setting [4]), 104%.

As for `CN(C(=O)c1ccc2c(c1)C(NC(=O)c1c(Cl)cccc1C(F)(F)F)CC2)C1CCN(c2ccc3cnccc3c2)CC1` (stereo not shown) [CC_H-62, 3-[[2-Chloro-6-(trifluoromethyl)-benzoyl]amino]-N-(1-isoquinolin-6-yl-piperidin-4-yl)-N-methyl-2,3-dihydro-1H-indene-5-carboxylic acid amide], the values for the inhibition at 10 µM in assay [1] (setting [5]) and in assay [2] (setting [6]) were 84% and 101%, respectively.

As to `CN(C(=O)c1ccc2c(c1)C(NC(=O)c1cnccc1C(F)(F)F)CCO2)C1CCN(c2ccncc2)CC1` (stereo not shown) [CC_H-42, N-[6-[Methyl-(1-pyridin-4-yl-piperidin-4-yl)-carbamoyl]-3,4-dihydro-2H-chromen-4-yl]-4-(trifluoromethyl)-pyridine-3-carboxylic acid amide], the inhibition at 10 µM came to 99% in assay [1] (setting [5]) and 104% in assay [2] (setting [6]).

For the compound `CN(C(=O)c1ccc2c(c1)[C@H](NC(=O)c1ccccc1Cl)CC2)C1CCC(Oc2ccncc2)CC1` (stereo partly drawn) [Example H-114, (3R)-3-[(2-Chloro-benzoyl)amino]-N-methyl-N-(4-pyridin-4-yloxy-cyclohexyl)-2,3-dihydro-1H-indene-5-carboxylic acid amide], the inhibition at 10 µM came to 38% in assay [1] (setting [3]) and 96% in assay [2] (setting [4]).

Consider `COc1ncccc1C(=O)N[C@@H]1CCc2ccc(C(=O)N(C)C3CCN(c4ccncc4)CC3)cc21` [Example H-41, 2-Methoxy-N-[(1R)-6-[methyl-(1-pyridin-yl-piperidin-4yl)-carbamoyl]-2,3-dihydro-1H-inden-1-yl]-pyridine-3-carboxylic acid amide], for which the inhibition at 10 µM in assay [1] (setting [3]) was 100%; in assay [2] (setting [4]) it was 98%.

`CN(C(=O)c1ccc2c(c1)C(NC(=O)c1cncnc1)CC2(C)C)C1CCN(c2ccncc2)CC1` (stereo not shown) [CC_H-22, N-[3,3-Dimethyl-6-[methyl-(1-pyridin-4-yl-piperidin-4-yl)-carbamoyl]-1,2-dihydro-inden-1-yl]-pyrimidine-5-carboxylic acid amide]: the inhibition at 10 µM in assay [1] (setting [5]) stood at 97%; in assay [2] (setting [6]), 90%.

For the compound `CN(C(=O)c1ccc2c(c1)[C@H](NC(=O)c1c(F)cccc1Cl)CC2)C1CCN(c2ccncc2)CC1` [Example H-32, (3R)-3-[(2-Chloro-6-fluoro-benzoyl)amino]-N-methyl-N-(1-pyridin-4-yl-piperidin-4-yl)-2,3-dihydro-1H-indene-5-carboxylic acid amide], the inhibition at 10 µM in assay [1] (setting [3]) is 100%; in assay [2] (setting [4]), 101%.

With `CN(C)c1cc(N2CCC(N(C)C(=O)c3ccc4c(c3)[C@H](NC(=O)c3ccccc3Cl)CC4)CC2)ccn1` [Example H-100, (3R)-3-[(2-Chloro-benzoyl)amino]-N-[1-(2-dimethylamino-pyridin-4-yl)-piperidin-4-yl]-N-methyl-2,3-dihydro-1H-indene-5-carboxylic acid amide], the inhibition at 10 µM was found to be 100% in assay [1] (setting [3]) and 103% in assay [2] (setting [4]).

`Cc1cc(N2CCC(N(C)C(=O)c3ccc4c(c3)[C@H](NC(=O)c3c(F)cccc3Cl)CC4)CC2)nc(C)n1` [Example H-163, (3R)-3-[(2-Chloro-6-fluoro-benzoyl)amino]-N-[1-(2,6-dimethyl-pyrimidin-4-yl)-piperidin-4-yl]-N-methyl-2,3-dihydro-1H-indene-5-carboxylic acid amide]: the inhibition at 10 µM turned out to be 99% in assay [1] (setting [3]) and 104% in assay [2] (setting [4]).

For `Cc1cc(N2CCC(N(C)C(=O)c3ccc4c(c3)[C@H](NC(=O)c3ccccc3F)CC4)CC2)nc(C)n1` [Example H-128, (3R)-N-[1-(2,6-Dimethyl-pyrimidin-4-yl)-piperidin-4-yl]-3-[(2-fluoro-benzoyl)amino]-N-methyl-2,3-dihydro-1H-indene-5-carboxylic acid amide], the inhibition at 10 µM in assay [1] (setting [3]) worked out at 99%; in assay [2] (setting [4]), 100%.

Take `CN(C(=O)c1ccc2c(c1)C(N(C)C(=O)c1cccc(Cl)c1Cl)CC2)C1CCN(c2ccncc2)CC1` (stereo not shown) [CC_H-25, 3-[(2,3-Dichloro-benzoyl)-methyl-amino]-N-methyl-N-(1-pyridin-4-yl-piperidin-4-yl)-2,3-dihydro-1H-indene-5-carboxylic acid amide]: the results for the inhibition at 10 µM in assay [1] (setting [5]) and in assay [2] (setting [6]) were 98% and 104%, respectively.

For `CN(C(=O)c1ccc2c(c1)[C@H](NC(=O)c1ccccc1Cl)CC2)C1CCN(c2ccncc2)CC1(C)C` (stereo partly drawn) [Example H-60, (3R)-3-[(2-Chloro-benzoyl)amino]-N-(3,3-dimethyl-1-pyridin-4-yl-piperidin-4-yl)-N-methyl-2,3-dihydro-1H-indene-5-carboxylic acid amide], the inhibition at 10 µM was found to be 99% in assay [1] (setting [3]) and 103% in assay [2] (setting [4]).

Turning to `CN(C(=O)c1ccc2c(c1)CC[C@H]2NS(=O)(=O)c1ccccc1Cl)C1CCN(c2ccncc2)CC1` [Example H-16, (1R)-1-[[(2-Chlorophenyl)sulfonyl]amino]-N-methyl-N-(1-pyridin-4-yl-piperidin-4-yl)-2,3-dihydro-1H-indene-5-carboxylic acid amide], the inhibition at 10 µM in assay [1] (setting [3]) amounted to 100%; in assay [2] (setting [4]), 92%.

As for `CN(CCC1CCN(c2ccncc2)CC1)C(=O)c1ccc2c(c1)[C@H](NC(=O)c1ccccc1Cl)CC2` [Example H-66, (3R)-3-[(2-Chloro-benzoyl)amino]-N-methyl-N-[2-(1-pyridin-4-yl-piperidin-4-yl)-ethyl]-2,3-dihydro-1H-indene-5-carboxylic acid amide], the inhibition at 10 µM is 93% in assay [1] (setting [3]) and 99% in assay [2] (setting [4]).

For the compound `CN(C(=O)c1ccc2c(c1)C(NC(=O)CCC1CCCC1)CC2)C1CCN(c2ccncc2)CC1` (stereo not shown) [CC_H-59, 3-(3-Cyclopentyl-propanoylamino)-N-methyl-N-(1-pyridin-4-yl-piperidin-4-yl)-2,3-dihydro-1H-indene-5-carboxylic acid amide], the inhibition at 10 µM in assay [1] (setting [5]) stood at 99%; in assay [2] (setting [6]), 103%.

Take `Cc1cc(N2CCC(N(C)C(=O)c3ccc4c(c3)[C@H](NC(=O)c3ccccc3C(F)(F)F)CC4)CC2)nc(C)n1` [Example H-132, (3R)-N-[1-(2,6-Dimethyl-pyrimidin-4-yl)-piperidin-4-yl]-N-methyl-3-[[2-(trifluoromethyl)-benzoyl]amino]-2,3-dihydro-1H-indene-5-carboxylic acid amide]: the inhibition at 10 µM in assay [1] (setting [3]) and in assay [2] (setting [4]) was 99% throughout.

As to `O=C(NCCC1CCN(c2ccncc2)CC1)c1ccc2c(c1)[C@H](NC(=O)c1ccccc1Cl)CC2` [Example H-15, (3R)-3-[(2-Chloro-benzoyl)amino]-N-[2-(1-pyridin-4-yl-piperidin-4-yl)-ethyl]-2,3-dihydro-1H-indene-5-carboxylic acid amide], the results for the inhibition at 10 µM in assay [1] (setting [3]) and in assay [2] (setting [4]) were 100% and 99%, respectively.

Consider `CN(C(=O)c1ccc2c(c1)C(N(C)S(=O)(=O)Cc1ccccc1C(F)(F)F)CC2)C1CCN(c2ccncc2)CC1` (stereo not shown) [CC_H-46, N-Methyl-3-[methyl-[[2-(trifluoromethyl)-phenyl]-methylsulfonyl]-amino]-N-(1-pyridin-4-yl-piperidin-4-yl)-2,3-dihydro-1H-indene-5-carboxylic acid amide], for which the inhibition at 10 µM was 99% in assay [1] (setting [5]) and 104% in assay [2] (setting [6]).

(Values after patent US8680159B2, “Bradykinin 1 receptor modulating compounds” (Gruenenthal GmbH, priority 2010, dated 2014).)
